Measurements: article PMC11277439, “The role of lysosomal phospholipase A2 in the catabolism of bis(monoacylglycerol)phosphate and association with phospholipidosis” (Journal of Lipid Research, 2024)

Each compound was assayed against T1, recombinant human LPLA2 (hLPLA2) (Homo sapiens, UniProt Q8NCC3) (assay: oleic acid release from liposomes, HPTLC). Details: DODPC/S,S-(3,3′,C18:1)-BMP liposomes (2.3:1), 50 mM sodium acetate pH 4.5, 37°C, 5 min pre-incubation of drug with liposomes; read-out: Lipase Inhibition IC50 μM (BMP)^g.
T1 construct: gene PLA2G15; recombinant human enzyme from Proteos
T1 sequence (Q8NCC3 34-412): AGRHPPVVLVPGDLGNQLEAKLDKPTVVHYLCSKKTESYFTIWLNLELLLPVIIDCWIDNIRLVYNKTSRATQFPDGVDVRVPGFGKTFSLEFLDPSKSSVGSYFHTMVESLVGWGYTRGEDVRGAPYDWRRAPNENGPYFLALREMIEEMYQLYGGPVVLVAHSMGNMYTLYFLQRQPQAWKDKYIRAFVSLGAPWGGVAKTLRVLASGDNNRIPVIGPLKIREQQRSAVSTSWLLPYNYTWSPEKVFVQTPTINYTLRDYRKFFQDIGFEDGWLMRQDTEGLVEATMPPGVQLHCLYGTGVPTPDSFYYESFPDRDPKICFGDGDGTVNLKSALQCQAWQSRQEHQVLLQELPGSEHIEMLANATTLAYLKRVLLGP
Format: biochemical
Excerpt: oleic acid release from liposomes, HPTLC on recombinant human LPLA2 (hLPLA2)
`CCCCc1oc2ccccc2c1C(=O)c1cc(I)c(OCCN(CC)CC)c(I)c1` [amiodarone, (2-butyl-1-benzofuran-3-yl)-[4-[2-(diethylamino)ethoxy]-3,5-diiodophenyl]methanone] showed an IC50 of 18 µM.
`C[C@]12CC[C@@H]3c4ccc(O)cc4C[C@@H](CCCCCCCCC[S+]([O-])CCCC(F)(F)C(F)(F)F)[C@H]3[C@@H]1CC[C@@H]2O` (stereo partly drawn) [fulvestrant, (7R,8R,9S,13S,14S,17S)-13-methyl-7-[9-(4,4,5,5,5-pentafluoropentylsulfinyl)nonyl]-6,7,8,9,11,12,14,15,16,17-decahydrocyclopenta[a]phenanthrene-3,17-diol] was tested, and the IC50 was 18.5 µM.
`CN(C)CCC=C1c2ccccc2C=Cc2ccccc21` [cyclobenzaprine, N,N-dimethyl-3-(2-tricyclo[9.4.0.03,8]pentadeca-1(15),3,5,7,9,11,13-heptaenylidene)propan-1-amine] was tested, and the IC50 was 13.2 µM.
For `CCC(=O)O[C@@H](O[P@](=O)(CCCCc1ccccc1)CC(=O)N1C[C@H](C2CCCCC2)C[C@H]1C(=O)O)C(C)C` [fosinopril, (2S,4S)-4-cyclohexyl-1-[2-[(2-methyl-1-propanoyloxypropoxy)-(4-phenylbutyl)phosphoryl]acetyl]pyrrolidine-2-carboxylic acid], the IC50 was 0.849 µM.
With `C1CCC(C(CC2CCCCN2)C2CCCCC2)CC1` (stereo not drawn) [perhexiline, 2-(2,2-dicyclohexylethyl) piperidine] the IC50 was 31.1 µM.
`CC/C(=C(\c1ccccc1)c1ccc(OCCN(C)C)cc1)c1ccccc1` [tamoxifen] showed an IC50 of 20.1 µM.
In the case of `O=C(O)[C@@H]1C[C@@H](C2CCCCC2)CN1C(=O)CP(=O)(O)CCCCc1ccccc1` [fosinoprilat, (2S,4S)-4-cyclohexyl-1-{2-[hydroxy(4-phenylbutyl)phosphoryl]acetyl}pyrrolidine-2-carboxylic acid], the IC50 is reported as 39.9 µM.
`CN(C)CCCN1c2ccccc2Sc2ccc(Cl)cc21` [chlorpromazine, 3-(2-chlorophenothiazin-10-yl)-N,N-dimethylpropan-1-amine] gave an IC50 of 9.7 µM.
In the case of `CC(C)NCC(O)COc1cccc2ccccc12` (stereo not drawn) [propranolol, 1-(naphthalen-1-yloxy)-3-[(propan-2-yl)amino] propan-2-ol], the IC50 is reported as 45.8 µM.
`CCOC(=O)N1CCC(=C2c3ccc(Cl)cc3CCc3cccnc32)CC1` [loratadine, ethyl 4-{13-chloro-4-azatricyclo [9.4.0.03, 8]pentadeca1(11),3(8), 4,6,12,14-hexaen-2-ylidene}piperidine-1-carboxylate] showed an IC50 of 21.8 µM.
For `COc1ccccc1OCCNCC(O)COc1cccc2[nH]c3ccccc3c12` (stereo not drawn) [carvedilol, 1-(9H-carbazol-4-yloxy)-3-[2-(2-methoxyphenoxy)ethylamino]propan-2-ol], the IC50 was 34.7 µM.
For `CCOC(=O)C1=C(COCCN)NC(C)=C(C(=O)OC)C1c1ccccc1Cl` (stereo not drawn) [amlodipine, 3-O-ethyl 5-O-methyl 2-(2-aminoethoxymethyl)-4-(2-chlorophenyl)-6-methyl-1,4-dihydropyridine-3,5-dicarboxylate], the IC50 was 24 µM.
`CCN(CC)C(C)CN1c2ccccc2Sc2ccccc21` (stereo not drawn) [profenamine, N,N-diethyl-1-phenothiazin-10-ylpropan-2-amine] showed an IC50 of 40.9 µM.
For `NCC[C@H](Oc1ccc(C(F)(F)F)cc1)c1ccccc1` [seproxitine, (3S)-3-phenyl-3-[4-(trifluoromethyl)phenoxy]propan-1-amine], the IC50 was 20.9 µM.
Compound `CC[C@H](NC(=O)c1c(C)c(-c2ccccc2)nc2ccccc12)c1ccccc1` [SB222200, 3-methyl-2-phenyl-N-[(1S)-1-phenylpropyl]quinoline-4-carboxamide] has an IC50 of 28.7 µM.
`O=C(c1ccc(OCCN2CCCCC2)cc1)c1c(-c2ccc(O)cc2)sc2cc(O)ccc12` [raloxifene, [6-hydroxy-2-(4-hydroxyphenyl)-1-benzothiophen-3-yl]-[4-(2-piperidin-1-ylethoxy)phenyl]methanone] showed an IC50 of 50.6 µM.
`CN(CCCN1c2ccccc2CCc2ccccc21)CC(=O)c1ccc(Cl)cc1` [lofrepramine, 1-(4-chlorophenyl)-2-[3-(5,6-dihydrobenzo[b][1]benzazepin-11-yl)propyl-methylamino]ethanone] was tested, and the IC50 was 41.7 µM.
`CC(C)(C)c1ccc(CN2CCN(C(c3ccccc3)c3ccc(Cl)cc3)CC2)cc1` (stereo not drawn) [buclizine, 1-[(4-tert-butylphenyl)methyl]-4-[(4-chlorophenyl)-phenylmethyl]piperazine] was tested, and the IC50 was 16 µM.
